{"source": "PubChem BioAssay (NCI)", "note": "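1) Cells in 96-well plates. 2) Compound, 48 h, 5 concentrations. 3) Linear interpolation between surrounding doses. 4) Unreached endpoint = highest concentration. The concentration for full growth arrest is given as TGI.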", "data": [{"system": "RXF 393 renal", "assay": "NCI-60 cell line screen, 48 h", "units": {"TGI": "µM"}, "values": [{"smiles": "Cc1cn(C2OC(CO[Si](C)(C)C(C)(C)C)/C(=C\\C#N)C2O[Si](C)(C)C(C)(C)C)c(=O)[nH]c1=O", "note": "(stereo not given)", "TGI": 92}, {"smiles": "COc1cc2c(/C=C3/C(=O)Nc4ccc(O)cc43)c(Cl)n(Cc3ccccc3)c2cc1C", "TGI": 5.06}, {"smiles": "CC(C)=CCc1c(O)cc(O)c2c1OC(c1ccc(O)cc1)C(O)C2=O", "note": "(stereo not given)", "TGI": 49.9}, {"smiles": "Cc1ccc(-c2c(C#N)c(-c3ccccc3)n(NS(=O)(=O)c3ccc(C)cc3)c(=O)c2C#N)cc1", "TGI": "> 100"}, {"smiles": "CC(C)CCCC(C)[C@H]1CC[C@H]2n3c(nnc3-c3ccccc3)CCC[C@]12C", "note": "(stereo not given in full)", "TGI": 27}, {"smiles": "CCCCCCCCCCCCCCCCP(=O)(O)OCC(N)C(=O)O", "note": "(stereo not given)", "TGI": 75.1}, {"smiles": "OC1=C2c3ccccc3NC2Oc2cc(F)ccc21", "note": "(stereo not given)", "TGI": 38.3}, {"smiles": "NCC(Cl)C(O)c1cnc(N)[nH]1", "note": "(stereo not given)", "TGI": 4.7}]}, {"system": "UACC-62 melanoma", "assay": "NCI-60 cell line screen, 48 h", "units": {"TGI": "µM"}, "values": [{"smiles": "CCOc1cccc(C=Nc2ccccc2SSc2ccccc2N=Cc2cccc(OCC)c2O)c1O", "TGI": 22}, {"smiles": "Cc1c2c(cc3c1C(=O)C(=O)C([C@@H](C)CO)=C3O)C(C)(C)CCC2", "TGI": "> 100"}, {"smiles": "CC[C@@]1(O)C(=O)OCc2c1cc1n(c2=O)Cc2c-1nc1ccccc1c2/C=N\\NC(=O)C[n+]1ccccc1", "TGI": 1.22}, {"smiles": "Cc1[nH]c(=O)[nH]c(=O)c1/C=C/C(=O)NC(CO)CC(C)C", "note": "(stereo not given)", "TGI": "> 375"}, {"smiles": "COc1ccc(CC2Cc3ccccc3CCN2)cc1OC", "note": "(stereo not given)", "TGI": "> 50"}, {"smiles": "CN(C)CCn1c(=O)c2ccc(NCCNCCO)c3c(=O)c4ccccc4n(c1=O)c23", "TGI": 0.88}, {"smiles": "CN(CCC(=O)N1CC(CCl)c2ccc([N+](=O)[O-])cc21)CCC(=O)N1CC(CCl)c2ccc([N+](=O)[O-])cc21", "note": "(stereo not given)", "TGI": 24.7}, {"smiles": "O=C1Cc2c([nH]c3ccc(Br)cc23)-c2cc(Br)ccc2N1", "TGI": "> 100"}, {"smiles": "O=C1CC(Br)c2c(Br)sc(Br)c21", "note": "(stereo not given)", "TGI": 30.8}, {"smiles": "[O-][n+]1nc(N2CCOCC2)nc2ccccc21", "TGI": "> 100"}, {"smiles": "COc1ccc(NC(=S)Nc2cc(C)ccn2)cc1", "TGI": "> 100"}, {"smiles": "N=C1C(=N)c2ccccc2-c2ccccc21.[Cl-].[Ru+2].c1cnc2c(c1)ccc1cccnc12.c1cnc2c(c1)ccc1cccnc12", "TGI": "> 100"}, {"smiles": "NCc1ccc(-c2ccc(CN)s2)s1", "TGI": "> 100"}, {"smiles": "Cc1cccc(N/C(=C(/C(Cl)=C(Cl)Cl)[N+](=O)[O-])n2nnc3ccccc32)c1", "TGI": 37}, {"smiles": "CCC1CN2CCc3cc(OC)c(OC)cc3C2CC1CC1c2cc(OC)c(OC)cc2CCN1C(=O)C(N)Cc1ccccc1", "note": "(stereo not given)", "TGI": 11.2}, {"smiles": "CC(=O)OC1C=C(C=O)C(O)(C=O)C2(C)CCCC(C)(C)C12", "note": "(stereo not given)", "TGI": 6.1}, {"smiles": "C1C2CC3CC1CC(c1nn4c(C56CC7CC(CC(C7)C5)C6)nnc4s1)(C2)C3", "TGI": "> 100"}, {"smiles": "Cc1cn(C2OC(CO[Si](C)(C)C(C)(C)C)/C(=C\\C#N)C2O[Si](C)(C)C(C)(C)C)c(=O)[nH]c1=O", "note": "(stereo not given)", "TGI": "> 100"}, {"smiles": "COc1cc2c(/C=C3/C(=O)Nc4ccc(O)cc43)c(Cl)n(Cc3ccccc3)c2cc1C", "TGI": "> 41.9"}, {"smiles": "O=[N+]([O-])/C(C(Cl)=C(Cl)Cl)=C1\\Nc2ccc([N+](=O)[O-])cc2N1", "TGI": "> 100"}, {"smiles": "CC(C)=CCc1c(O)cc(O)c2c1OC(c1ccc(O)cc1)C(O)C2=O", "note": "(stereo not given)", "TGI": 46.8}, {"smiles": "Cc1ccc(-c2c(C#N)c(-c3ccccc3)n(NS(=O)(=O)c3ccc(C)cc3)c(=O)c2C#N)cc1", "TGI": "> 100"}, {"smiles": "CC(C)CCCC(C)[C@H]1CC[C@H]2n3c(nnc3-c3ccccc3)CCC[C@]12C", "note": "(stereo not given in full)", "TGI": 27.3}, {"smiles": "CCCCCCCCCCCCCCCCP(=O)(O)OCC(N)C(=O)O", "note": "(stereo not given)", "TGI": "> 100"}, {"smiles": "OC1=C2c3ccccc3NC2Oc2cc(F)ccc21", "note": "(stereo not given)", "TGI": 34.7}, {"smiles": "NCC(Cl)C(O)c1cnc(N)[nH]1", "note": "(stereo not given)", "TGI": 63}]}, {"system": "OVCAR-4 ovarian", "assay": "NCI-60 cell line screen, 48 h", "units": {"TGI": "µM"}, "values": [{"smiles": "CCOc1cccc(C=Nc2ccccc2SSc2ccccc2N=Cc2cccc(OCC)c2O)c1O", "TGI": 14.3}, {"smiles": "Cc1c2c(cc3c1C(=O)C(=O)C([C@@H](C)CO)=C3O)C(C)(C)CCC2", "TGI": "> 100"}, {"smiles": "CC[C@@]1(O)C(=O)OCc2c1cc1n(c2=O)Cc2c-1nc1ccccc1c2/C=N\\NC(=O)C[n+]1ccccc1", "TGI": "> 100"}, {"smiles": "Cc1[nH]c(=O)[nH]c(=O)c1/C=C/C(=O)NC(CO)CC(C)C", "note": "(stereo not given)", "TGI": "> 375"}, {"smiles": "COc1ccc(CC2Cc3ccccc3CCN2)cc1OC", "note": "(stereo not given)", "TGI": "> 50"}, {"smiles": "CN(C)CCn1c(=O)c2ccc(NCCNCCO)c3c(=O)c4ccccc4n(c1=O)c23", "TGI": 5.24}, {"smiles": "CN(CCC(=O)N1CC(CCl)c2ccc([N+](=O)[O-])cc21)CCC(=O)N1CC(CCl)c2ccc([N+](=O)[O-])cc21", "note": "(stereo not given)", "TGI": "> 100"}, {"smiles": "O=C1Cc2c([nH]c3ccc(Br)cc23)-c2cc(Br)ccc2N1", "TGI": "> 100"}, {"smiles": "O=C1CC(Br)c2c(Br)sc(Br)c21", "note": "(stereo not given)", "TGI": 33.3}, {"smiles": "COc1ccc(NC(=S)Nc2cc(C)ccn2)cc1", "TGI": "> 100"}, {"smiles": "N=C1C(=N)c2ccccc2-c2ccccc21.[Cl-].[Ru+2].c1cnc2c(c1)ccc1cccnc12.c1cnc2c(c1)ccc1cccnc12", "TGI": 77.7}, {"smiles": "NCc1ccc(-c2ccc(CN)s2)s1", "TGI": "> 100"}, {"smiles": "Cc1cccc(N/C(=C(/C(Cl)=C(Cl)Cl)[N+](=O)[O-])n2nnc3ccccc32)c1", "TGI": 39.5}, {"smiles": "CC(=O)OC1C=C(C=O)C(O)(C=O)C2(C)CCCC(C)(C)C12", "note": "(stereo not given)", "TGI": 4.01}, {"smiles": "C1C2CC3CC1CC(c1nn4c(C56CC7CC(CC(C7)C5)C6)nnc4s1)(C2)C3", "TGI": "> 100"}, {"smiles": "Cc1cn(C2OC(CO[Si](C)(C)C(C)(C)C)/C(=C\\C#N)C2O[Si](C)(C)C(C)(C)C)c(=O)[nH]c1=O", "note": "(stereo not given)", "TGI": "> 100"}, {"smiles": "COc1cc2c(/C=C3/C(=O)Nc4ccc(O)cc43)c(Cl)n(Cc3ccccc3)c2cc1C", "TGI": "> 100"}, {"smiles": "O=[N+]([O-])/C(C(Cl)=C(Cl)Cl)=C1\\Nc2ccc([N+](=O)[O-])cc2N1", "TGI": "> 100"}, {"smiles": "CC(C)=CCc1c(O)cc(O)c2c1OC(c1ccc(O)cc1)C(O)C2=O", "note": "(stereo not given)", "TGI": "> 100"}, {"smiles": "Cc1ccc(-c2c(C#N)c(-c3ccccc3)n(NS(=O)(=O)c3ccc(C)cc3)c(=O)c2C#N)cc1", "TGI": "> 100"}, {"smiles": "CC(C)CCCC(C)[C@H]1CC[C@H]2n3c(nnc3-c3ccccc3)CCC[C@]12C", "note": "(stereo not given in full)", "TGI": 32.5}]}]}
